In experiment [1] the test system is normal human T-cells. The experiment is classed as cell-based. To be noted: for effect on DTX-K-induced TNF-α secretion: 100 μM blocker added 5 min before 100 nM DTX-K, FIG. 2K; for fold increase in TNFα secretion: FIG. 1A, DTX-K 100 nM, other blockers at highest concentration used. The protocol: Human T-Cells: Normal human T-cells were purified from peripheral blood of healthy donors as described (Levite et al, 2000; Ganor et al, 2003; Levite t al, 1998), and the resulting cell population, containing ≧90% T-cells, was suspended in RPMI medium supplemented with 10% FCS, 1% L-Glutamine and antibiotics (Biological Industries, Bet Haemek, Israel) and maintained at 2×10^6 cells/ml (37° C./5% CO2).
Determination of TNF-α, IFN-γ, IL-10 and IL-4 by ELISA: Freshly-purified normal resting human T-cells (2×10^6/ml) were incubated in 24-well plates (Costar, Corning, N.Y.) and the various channel blockers were added. […] Cytokine levels were measured in supernatants after 24 hours for TNF-α and IFN-γ and after 72 hours for IL-10 and IL-4, by quantitative sandwich ELISA (R&D, Minneapolis, Minn.), according to the manufacturer's instructions. […]
These 12 blockers were selected on the basis of their reported ability to block most types of K^+, Na^+, Ca^2+ and Cl^− channels expressed in T-cells (Deutsch et al, 1986; Lewis et al, 1995; Lewis et al, 1988; Rader et al, 1996; Freedman et al, 1995; Koo et al, 1997; Lin et al, 1993; Ishida et al, 1993; Jensen et al, 1999; Kotturi et al, 2003; Phipps et al, 1996; Verheugen et al, 1997; Levite et al, 2000; Chandy et al, 1984). The levels of TNFα secreted into the culture media were tested 24 hours later by ELISA. For positive control, the cells were exposed to the potent phorbol ester PMA, know to activate T-cells in a non-specific manner. The results are shown in FIG. 1A and represent fold increase ±SD TNF-α secretion tested in 2-3 independent experiments. Each ion channel blocker was examined in at least two independent experiments, and at several concentrations covering its effective range (see Materials and Methods). The numbers in each figure next to each blocker represent the highest molar concentration used. Statistical analysis: *P=0.0001, 0.0005, 0.0011 and 0.0005 vs. untreated for MgTX, KTX, DTX-K and PMA, respectively (Student's t-test).

Experiment [2] has as its system ion channels. The settings on record: manufacturer's data sheets and/or the literature; cited from earlier work.
Experiment [3] deals with melanoma in-transit metastases. The settings on record: ILP; cited from earlier work.
Experiment [4] relates to cloned Kv1.1, Kv1.2 and Kv1.6 channels. The settings on record: cited from earlier work.
The target of experiment [5] is T1, Kv1.1 (Homo sapiens, UniProt Q09470). To be noted: cited from earlier work.
T1 sequence (Q09470 whole entry): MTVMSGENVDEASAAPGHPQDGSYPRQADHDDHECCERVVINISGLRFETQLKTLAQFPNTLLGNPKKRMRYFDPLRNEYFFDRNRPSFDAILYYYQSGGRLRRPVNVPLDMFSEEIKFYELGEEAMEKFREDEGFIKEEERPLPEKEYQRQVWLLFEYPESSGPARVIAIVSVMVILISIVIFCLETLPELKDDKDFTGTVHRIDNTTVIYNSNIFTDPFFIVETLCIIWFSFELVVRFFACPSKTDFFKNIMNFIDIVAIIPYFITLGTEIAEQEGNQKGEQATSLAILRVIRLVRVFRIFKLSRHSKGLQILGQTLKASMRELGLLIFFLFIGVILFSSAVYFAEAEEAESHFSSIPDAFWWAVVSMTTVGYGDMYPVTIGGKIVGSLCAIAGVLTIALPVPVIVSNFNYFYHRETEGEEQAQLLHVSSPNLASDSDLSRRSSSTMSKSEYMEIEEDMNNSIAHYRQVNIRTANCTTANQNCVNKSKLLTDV
Experiment [6] deals with T1, Kv1.1. The settings on record: Gutman et al, 2003; cited from earlier work.
In experiment [7] the target is T2, Kv1.3 (Homo sapiens, UniProt P22001).
T2 construct: host or cells: Xenopus laevis oocytes
T2 sequence (P22001 whole entry): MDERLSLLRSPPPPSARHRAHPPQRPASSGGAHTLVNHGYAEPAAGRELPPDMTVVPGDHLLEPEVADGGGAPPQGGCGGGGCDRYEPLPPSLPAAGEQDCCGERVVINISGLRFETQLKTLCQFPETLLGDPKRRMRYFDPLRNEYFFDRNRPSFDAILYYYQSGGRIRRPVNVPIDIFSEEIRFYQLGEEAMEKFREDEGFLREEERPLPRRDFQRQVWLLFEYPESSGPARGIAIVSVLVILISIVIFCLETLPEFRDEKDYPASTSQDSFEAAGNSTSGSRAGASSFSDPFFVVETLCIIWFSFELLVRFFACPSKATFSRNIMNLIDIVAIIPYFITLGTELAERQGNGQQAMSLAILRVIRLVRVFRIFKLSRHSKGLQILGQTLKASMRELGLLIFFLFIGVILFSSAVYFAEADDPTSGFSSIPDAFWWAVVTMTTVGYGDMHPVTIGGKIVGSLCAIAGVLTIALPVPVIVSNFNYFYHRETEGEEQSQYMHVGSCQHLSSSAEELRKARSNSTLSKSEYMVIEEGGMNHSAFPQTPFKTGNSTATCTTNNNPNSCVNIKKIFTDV
The settings on record: cited from earlier work.

The target in experiment [8] is Kv1.2 (Homo sapiens, UniProt P16389). To be noted: cited from earlier work.
The target in experiment [9] is Kv1.1 voltage-gated potassium channel of normal human peripheral T-cells (human) (UniProt Q09470). Put plainly: cell-based or functional assay.
Chain of Kv1.1 voltage-gated potassium channel of normal human peripheral T-cells (human) (Q09470 whole entry): as the sequence (Q09470 whole entry) above
The target of experiment [10] is Shaker B K^+-channels (Drosophila melanogaster, UniProt P08510). The settings on record: at 100 nM concentration; cited from earlier work.
Chain of Shaker B K^+-channels (P08510 whole entry): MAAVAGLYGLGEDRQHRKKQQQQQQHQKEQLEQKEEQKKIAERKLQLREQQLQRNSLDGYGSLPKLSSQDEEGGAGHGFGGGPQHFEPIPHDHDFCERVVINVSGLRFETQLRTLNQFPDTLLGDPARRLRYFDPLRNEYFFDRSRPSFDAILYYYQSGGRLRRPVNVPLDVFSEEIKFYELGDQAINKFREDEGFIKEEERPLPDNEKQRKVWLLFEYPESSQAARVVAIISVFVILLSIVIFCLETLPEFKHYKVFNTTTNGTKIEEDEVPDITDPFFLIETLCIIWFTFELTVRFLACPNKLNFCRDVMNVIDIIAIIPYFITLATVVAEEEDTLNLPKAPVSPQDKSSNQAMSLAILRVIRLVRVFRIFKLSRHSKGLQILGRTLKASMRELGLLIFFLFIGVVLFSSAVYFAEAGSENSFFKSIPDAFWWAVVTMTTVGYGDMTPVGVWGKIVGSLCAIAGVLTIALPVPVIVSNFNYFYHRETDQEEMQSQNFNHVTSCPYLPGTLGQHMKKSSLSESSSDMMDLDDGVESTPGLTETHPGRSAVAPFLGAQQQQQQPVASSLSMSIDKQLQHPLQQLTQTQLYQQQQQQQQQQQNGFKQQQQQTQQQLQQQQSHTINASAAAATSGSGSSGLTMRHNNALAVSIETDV
Experiment [11] concerns high-grade STS. To be noted: cited from earlier work.
For experiment [12], the system named is host ED1-positive cells in the liver. The settings on record: administration of TNF-α into the brain; Campbell et al, 2005; cited from earlier work.
In experiment [13] the test system is Kv1.1, Kv1.2 and Kv1.3. The settings on record: cited from earlier work.
The mark [14] stands for this setting: 24 hours, several effective concentrations, no other stimulus.
[15] abbreviates: multicenter trials in Europe, ILP for STS.

Like-named read-outs stand apart in the source and are kept apart here. No end group written: not given here.

The Ki is the dissociation constant of the complex between target and ligand, obtained from inhibition or displacement. The IC50 is the concentration needed to halve the response being measured.

On to `Nc1ccncc1` [4-AP, 4-Aminopyridine], for which, in experiment [1] (setting [14]), the TNF-α up-regulation entry is “no significant TNF-α up-regulation”.
Turning to `COC(=O)C1=C(C)NC(C)=C([N+](=O)[O-])C1c1ccccc1C(F)(F)F` (stereo not drawn) [+Bay K, R-(+)-Bay K8644], in experiment [1] (24 hours), the “effect on DTX-K-induced TNF-α secretion” value is recorded as “prevented completely”. Moreover, in experiment [1] (setting [14]), the TNF-α up-regulation result is listed as “no significant TNF-α up-regulation”.
As to `Clc1ccccc1C(c1ccccc1)(c1ccccc1)n1ccnc1` [CLT, Clotrimazole], the TNF-α up-regulation result in experiment [1] was “no significant TNF-α up-regulation”.
In the case of `N#Cc1cc2[nH]c(=O)c(=O)[nH]c2cc1[N+](=O)[O-]` [CNQX], the TNF-α up-regulation entry in experiment [1] (setting [14]) is on record as “no significant TNF-α up-regulation”.
Consider `O=C(O)c1cc([N+](=O)[O-])ccc1NCCCc1ccccc1` [NPPB], for which the “effect on DTX-K-induced TNF-α secretion” value in experiment [1] (24 hours) was “no such interrupting effect”. Further, in [1] (setting [14]), the TNF-α up-regulation result is given as “no significant TNF-α up-regulation”. The effective concentrations in experiment [2] is 100 to 200 µM.
As for `CCCCCCCCCCCCCC(=O)O[C@@H]1[C@@H](C)[C@@]2(O)[C@@H](C=C(CO)C[C@]3(O)C(=O)C(C)=C[C@@H]23)[C@@H]2C(C)(C)[C@]12OC(C)=O` [PMA], the “fold increase in TNFα secretion” value in experiment [1] (24 hours, no other stimulus) was 41.3 fold increase.
As to `C=C[C@H]1C[N@@]2CC[C@H]1C[C@H]2[C@H](O)c1ccnc2ccc(OC)cc12` [Quinine], the TNF-α up-regulation entry in [1] (setting [14]) is given as “no significant TNF-α up-regulation”. Further, the effective concentrations in experiment [2] was 1 to 10 µM.
For `CC[N+](CC)(CC)CC` [TEA, Tetraethylammonium], the TNF-α up-regulation result in [1] is given as “no significant TNF-α up-regulation”.
For the compound `NC1=N[C@H](O)[C@H]2[C@H]3O[C@]4(O)O[C@@H]([C@@H](O)[C@@]2(N1)[C@@H]4O)[C@]3(O)CO` [TTX, Tetrodotoxin], the TNF-α up-regulation result in [1] is recorded as “no significant TNF-α up-regulation”.
For the compound `N[C@@H](Cc1ccc(N(CCCl)CCCl)cc1)C(=O)O` [melphalan], in experiment [3], the “complete response (CR) rate” value is reported as roughly 50% and the overall response rate is 80%.
Regarding Alpha-dendrotoxin, the “concentration range blocking cloned Kv1.1, Kv1.2 and Kv1.6 channels” value in experiment [4] was “low nanomolar range”.
In the case of “Kaliotoxin (GVEINVKCSGSPQCLKPCKDAGMRFGKCMNRKCHCTPK) [KTX]”, the Kd in [5] (bath application to Xenopus laevis oocytes, Mourre et al, 1999, read-out: K(d), recombinant Kv1.1) is 1.5 nM; in [7] (bath application to Xenopus laevis oocytes, Mourre et al, 1999, read-out: K(d), recombinant Kv1.3) it was 0.1 nM; in [8] (bath application to Xenopus laevis oocytes, Mourre et al, 1999, read-out: K(d), recombinant Kv1.2), 25 nM. For the same compound, the Ki in [6] is 20 nM. Also, the “fold increase in TNFα secretion” value in [1] (24 hours, no other stimulus) was determined as 15.1 fold increase. Further, the effective concentrations in experiment [2] was 0.001 to 0.1 µM.
Take “Kaliotoxin (from UniProt P24662 1-38) (peptide)”: the fold increase in TNFα secretion by human T-cells (ELISA, 24 h) in experiment [9] was found to be 15.1 fold.
Regarding “Pi4: 38-amino acid long peptide from the venom of the scorpion Pandinus imperator (IEAIRCGGSRDCYRPCQKRTGCPNAKCINKTCKCYGCS; UniProt P58498 1-38, looked up)”, in experiment [10], the “block of Shaker B K^+-channels” value is “blocks completely and reversibly”.
Turning to TNF-α, the “major response rates, median” value in [11] (largest single-center studies in STS, range 58%-91%) is reported as 76%. Further, the “median limb salvage rate” value in experiment [11] (largest single-center studies in STS, range 58%-97%) is 84%; in [11] (setting [15]), 82%. The overall response rate in experiment [11] (setting [15]) is 76%; in experiment [3], 95%-100%. The “complete response (CR) rate” value in [3] is recorded as 70%-90%. Besides, in [12], the “increase in the number of host ED1-positive cells accumulated in the liver” value was “up to two fold increase”.
On to “maurotoxins: natural and synthetic maurotoxins, four disulfide bridges scorpion toxin (VSCTGSKDCYAPCRKQTGCPNAKCINKSCKCYGC; disulfide (positions not given here); also: four disulfide bridges, pairing not given here; UniProt P80719 1-34, looked up)”, for which the concentration for half-maximal inhibition (IC50) in experiment [5] (Xenopus oocytes, Rochat et al, 1998, read-out: half-effects (IC50), Kv1.1) was roughly 40 nM; in experiment [7] (Xenopus oocytes, Rochat et al, 1998, read-out: half-effects (IC50), Kv1.3), roughly 150 nM; in [8] (Xenopus oocytes, Rochat et al, 1998, read-out: half-effects (IC50), Kv1.2) it was roughly 0.8 nM.
Take rCharybdotoxin [CTX]: in experiment [1] (setting [14]), the TNF-α up-regulation entry is “no significant TNF-α up-regulation”.
Turning to “rHongotoxin-1: Centruroides limbatus toxin, blocks Kv1.1, Kv1.2 and Kv1.3 (TVIDVKCTSPKQCLPPCKAQFGIRAGAKCMNGKCKCYPH; ends and bridges not checked; cysteine pairing not given here; UniProt P59847 1-39, looked up)”, the “blocking concentration, Kv1.1, Kv1.2 and Kv1.3” value in experiment [13] was 0.1 to 0.2 pM.
For “rMargatoxin (TIINVKCTSPKQCLPPCKAQFGQSAGAKCMNGKCKCYPH) [MgTX]”, in [1] (24 hours, no other stimulus), the “fold increase in TNFα secretion” value was 6.5 fold increase.
In the case of “rMargatoxin (from UniProt P40755 1-39) (peptide)”, in experiment [9], the fold increase in TNFα secretion by human T-cells (ELISA, 24 h) stood at 6.5 fold.

These data come from US20090022739A1, “MODULATING THE KV1.1 VOLTAGE-GATED POTASSIUM CHANNEL IN T-CELLS FOR REGULATING THE […] AND SECRETION OF TUMOR NECROSIS FACTOR ALPHA (tnf-ALPHA) AND TREATING HUMAN DISEASE OR INJURIES MEDIATED BY […] HIGH OR LOW LEVELS OF TNF-ALPHA” (priority 2005, published 2009).
